{
  "source": "patent US10722520B2",
  "about": "“Heterocyclic compounds and their use in preventing or treating bacterial infections” (MUTABILIS, priority 2016, dated 2020)",
  "key": {"AmpC (PAE) [1]": {"target": "T1, AmpC (PAE) (Pseudomonas aeruginosa, UniProt P24735)", "T1 sequence (P24735 27-397)": "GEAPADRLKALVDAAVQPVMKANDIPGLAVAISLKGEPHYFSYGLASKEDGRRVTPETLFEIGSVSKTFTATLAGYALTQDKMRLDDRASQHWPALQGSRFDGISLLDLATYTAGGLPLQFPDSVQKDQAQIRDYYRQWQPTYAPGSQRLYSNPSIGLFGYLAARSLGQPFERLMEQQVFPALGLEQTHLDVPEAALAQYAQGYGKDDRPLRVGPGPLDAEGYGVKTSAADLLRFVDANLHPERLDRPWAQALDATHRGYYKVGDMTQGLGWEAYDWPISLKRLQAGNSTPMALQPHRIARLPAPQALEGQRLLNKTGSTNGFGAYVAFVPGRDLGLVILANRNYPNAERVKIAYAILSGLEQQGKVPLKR", "assay": "biochemical"}, "AmpC (P99)": {"target": "AmpC (P99) (Enterobacter cloacae, UniProt P05364)", "sequence (P05364 21-381)": "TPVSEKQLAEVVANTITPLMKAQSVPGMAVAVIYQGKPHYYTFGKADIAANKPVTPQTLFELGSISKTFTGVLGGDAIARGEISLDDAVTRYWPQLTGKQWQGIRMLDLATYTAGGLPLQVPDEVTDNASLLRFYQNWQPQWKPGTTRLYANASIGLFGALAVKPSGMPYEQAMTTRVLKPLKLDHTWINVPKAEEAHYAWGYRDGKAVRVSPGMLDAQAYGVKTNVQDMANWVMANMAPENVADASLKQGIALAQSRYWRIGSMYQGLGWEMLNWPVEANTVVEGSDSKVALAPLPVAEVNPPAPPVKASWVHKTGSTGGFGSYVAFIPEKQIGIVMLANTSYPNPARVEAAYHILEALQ", "conditions": "read-out: IC50 β-lactamase AmpC (P99); class (C); nitrocefin 200 μM, 30-min pre-incubation, enzyme 0.2 nM"}, "AmpC (PAE) [2]": {"target": "T1, AmpC (PAE)", "conditions": "read-out: IC50 β-lactamase AmpC (PAE); class (C); nitrocefin 200 μM, 30-min pre-incubation, enzyme 0.4 nM"}, "OXA-15": {"target": "OXA-15 (Pseudomonas aeruginosa, UniProt Q51574)", "sequence (Q51574 22-275)": "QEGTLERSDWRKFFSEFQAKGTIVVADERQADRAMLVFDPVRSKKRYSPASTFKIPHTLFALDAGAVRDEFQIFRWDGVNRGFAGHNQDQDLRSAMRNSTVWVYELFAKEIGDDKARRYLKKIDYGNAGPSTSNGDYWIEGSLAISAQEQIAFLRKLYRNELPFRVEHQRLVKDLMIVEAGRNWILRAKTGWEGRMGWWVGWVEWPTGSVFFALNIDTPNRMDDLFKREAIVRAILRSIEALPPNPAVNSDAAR", "conditions": "read-out: IC50 β-lactamase OXA-15; class (D); nitrocefin 200 μM, 30-min pre-incubation, enzyme 0.4 nM"}},
  "note": "Like-named read-outs stand apart in the source and are kept apart here.",
  "data": [
    {"smiles": "O=C1N2CC(n3ccsc3=O)=CC(C2)N1OS(=O)(=O)[O-].[Na+]", "note": "(centres unmarked) [Example 1, Sodium [7-oxo-3-(2-oxo-thiazol-3-yl)-1,6-diaza-bicyclo[3.2.1]oct-3-en-6-yl]sulfate]", "values": [
      {"measurement": "IC50", "setting": "AmpC (PAE) [1]", "value": 120, "unit": "nM"}
    ]},
    {"smiles": "O=C1N2CC(n3ccnn3)=CC(C2)N1OS(=O)(=O)[O-].[Na+]", "note": "(centres unmarked) [Example 2, sodium [7-oxo-3-(triazol-1-yl)-1,6-diazabicyclo[3.2.1]oct-3-en-6-yl]sulfate]", "values": [
      {"measurement": "IC50", "setting": "AmpC (P99)", "value": 10, "unit": "nM"},
      {"measurement": "IC50", "setting": "AmpC (PAE) [2]", "value": 150, "unit": "nM"},
      {"measurement": "IC50", "setting": "OXA-15", "value": 40, "unit": "nM"}
    ]},
    {"smiles": "O=C1N2CC(n3cncn3)=CC(C2)N1OS(=O)(=O)[O-].[Na+]", "note": "(centres unmarked) [Example 5, sodium [7-oxo-3-(1,2,4-triazol-1-yl)-1,6-diazabicyclo[3.2.1]oct-3-en-6-yl]sulfate]", "values": [
      {"measurement": "IC50", "setting": "AmpC (PAE) [1]", "value": 140, "unit": "nM"}
    ]}
  ]
}
